PMC9006293 (Blood Advances, 2022)

Assays:
[1] = system: DNIMV-specific T-cell hybridoma clones; test: Antigen-presentation assay, DNIMV-specific clones with fresh or fixed MGAR APCs; type: cell-based, mouse; conditions: fresh and paraformaldehyde-fixed MGAR APCs, 48 hours, ELISA
[2] = system: PRCLT-specific T-cell hybridoma clones; test: Antigen-presentation assay, PRCLT-specific clones with fresh or fixed MGAR APCs; type: cell-based, mouse; conditions: fresh and paraformaldehyde-fixed MGAR APCs, 48 hours, ELISA
HLA-DR molecules = conditions: FVIII-pulsed donor-derived human dendritic cells with diverse HLA-DRB1* molecules; cited from earlier work

DNIMVTFRNQASRPY
IL-2 response of DNIMV-specific clones [1]: activated

PRCLTRYYSSFVNME
IL-2 response of PRCLT-specific clones [2]: produced IL-2

FRNQASRPY
HLA-DR binding (HLA-DR molecules): promiscuous pan-DR HLA-DR binding peptide
